In patent publication US11571407B2, “Bicalutamide analogs or (S)-bicalutamide as exocytosis activating compounds for use in the treatment of a lysosomal storage disorder or glycogenosis” (BCN PEPTIDES, S.A., priority 2013, dated 2023):
Marks after values point to notes of the source that are not given here.

Columns and labels:
[1] = tested on: fibroblasts from patients affected by different lysosomal storage diseases; assay: Determination of lysosomal exocytosis (β-hexosaminidase activity in the culture medium); type: cell-based, human; details: for Increase in exocytosis (%), Median: Table 4 median over the patients' fibroblasts; for Increase in exocytosis (%), Median / Increase in exocytosis (%): 72 h; for cell cultures with significantly increased lysosomal exocytosis: thirteen patient fibroblast cultures, 50 and 100 μM, 72 hours
Procedure: (§1) Fibroblasts from thirteen patients affected by seven different lysosomal storage diseases (Fabry, Gaucher, Hurler, Niemann-Pick type A/B, Sanfilippo A, Sanfilippo B and Tay-Sachs) were cultured in DMEM (Dulbecco's modified Eagles medium) with 10% fetal bovine serum and in the presence of antibiotics (penicillin and streptomycin), at 37° C. with 5% CO2. All reagents were purchased from PAA Laboratories (Velizy-Villacoublay, France). The fibroblasts of the patients were selected on the basis of availability of fibroblasts and measurable residual activity. The use of human samples was approved by the Ethical Committee of Hospital Clinic, Barcelona
Fibroblasts cultured for 72 h in 24 well-plates in the presence or absence of bicalutamide, (S)-bicalutamide, (S)-bicalutamide analogs or (R)-bicalutamide at different concentrations in triplicate (10 nmol/L, 100 nmol/L, 1 μmol/L, 10 μmol/L, 50 μmol/L and 100 μmol/L), were rinsed with physiological saline. The cells were lysed by using 3 freeze-thaw cycles. Then protein concentration was determined by using the Lowry method. Protein lysates (10 μg) were seeded in 96-well plates and the enzymatic activity of the enzyme involved in each disease was determined in triplicate by means of fluorimetric artificial substrates: 4-methylumbelliferyl-α-N-sulphoglucosaminide for Sanfilippo A, 4-methylumbelliferyl-2-acetamido-2 deoxy-α-D-glucopyranoside for Sanfilippo B, 4-methylumbelliferyl-α-L-iduronide for Hurler, 4-methylumbelliferyl-N-acetyl-β-D-glucosaminide for Tay-sachs, 4-methylumbelliferyl-β-D-glucopyranoside for Gaucher, 4-methylumbelliferyl-α-Galactopiranosid for Fabry disease, and 6-hexadecanoylamino-4-methylumbelliferyl-P-colline for Niemann-Pick type AB. The activity of the enzyme β-hexosaminidase was assayed by using 4-methylumbelliferyl-2 acetamido-2 deoxy-β-D-glucopyranoside as artificial substrate [Annunziata et al., Study of influence of sex and age on human serum lysosomal enzymes by using 4-methylumbelliferyl substrates. Clin. Chim. Acta.
Lysosomal exocytosis was monitorized by measuring the enzymatic activity of the lysosomal enzyme β-hexosaminidase in the culture medium [Xu M, et al, δ-Tocopherol reduces lipid accumulation in Niemann-Pick type C1 and Wolman cholesterol storage disorders. […] The fibroblasts were previously treated with different concentrations of bicalutamide, (S)-bicalutamide or (R)-bicalutamide (10 nmol/L, 100 nmol/L, 1 μmol/L, 10 μmol/L, 50 μmol/L and 100 μmol/L) in triplicate in 24-well plates. At 0, 24, 48 and 72 hours, 30 μL of culture medium was aliquoted for the subsequent β-hexosaminidase activity assay.
Fibroblasts from two patients affected by Sanfilippo B and Hurler diseases were treated with different concentrations of bicalutamide (racemic mixture at increasing concentrations of 0.01, 0.1, 1, 10 and 100 μM). And the increase in lysosomal exocytosis was determined by analyzing the enzymatic activity of the lysosomal enzyme β-hexosaminidase in the culture medium.
Fibroblasts from thirteen patients affected by different lysosomal storage diseases (four Sanfilippo B disease patients with different genotypes, three Sanfilippo A disease patients with different genotypes, two Tay-Sachs disease patients with the same genotype, one Gaucher disease patient, one Niemann-pick type A/B disease patient, one Hurler disease patient, and one Fabry disease patient) were independently treated with different concentrations of (R)- and (S)-bicalutamide (50 and 100 μM) for 72 hours.

[2] = tested on: fibroblasts from patients affected by different lysosomal storage diseases; assay: Determination of glycosaminoglycans (GAGs), 1,9-dimethylmethylene blue (DMB) assay; type: cell-based, human; details: for Decrease of GAGs (%), Median: Table 5 median over the patients' fibroblasts; for Decrease of GAGs (%), Median / Decrease of GAGs (%): 72 h; for decrease of glycosaminoglycans (in words): fibroblasts from seven patients, 50 and 100 μM
Procedure: as §1
Glycobiology. […] The fibroblasts were cultured in triplicate in 6-well plates and they were harvested 72 hours after treatment. DMB absorbance was measured in duplicate at 656 nm with a microplate reader (POLARstar Omega, BMG LABTECH, Offenburg, Germany).
Fibroblasts from three patients affected by Sanfilippo B disease and one patient affected by Hurler disease were treated with increasing concentrations of bicalutamide (racemic mixture at increasing concentrations of 0.01, 0.1, 1, 10 and 100 μM). Glycosaminoglycans (GAGs) levels were quantified with the 1,9-dimethylmethylene blue (DMB) assay.
Fibroblasts from seven patients affected by different diseases derived from lysosomal storage (three Sanfilippo B disease patients with different genotypes, one Sanfilippo A disease patient, one Tay-Sachs disease patient, one Niemann-Pick type A/B disease patient and one Hurler disease patient) were independently treated with different concentrations of (R)- and (S)-bicalutamide (50 and 100 μM).

[3] = tested on: androgen receptors; details: cited from earlier work
[4] = Table 4 patient 1, Sanfilippo B fibroblasts, 50 μM
[5] = Table 4 patient 1, Sanfilippo B fibroblasts, 100 μM
[6] = Table 4 patient 2, Sanfilippo B fibroblasts, 50 μM
[7] = Table 4 patient 2, Sanfilippo B fibroblasts, 100 μM
[8] = Table 4 patient 3, Sanfilippo B fibroblasts, 50 μM
[9] = Table 4 patient 3, Sanfilippo B fibroblasts, 100 μM
[10] = Table 4 patient 4, Sanfilippo B fibroblasts, 50 μM
[11] = Table 4 patient 4, Sanfilippo B fibroblasts, 100 μM
[12] = Table 4 patient 5, Sanfilippo A fibroblasts, 50 μM
[13] = Table 4 patient 5, Sanfilippo A fibroblasts, 100 μM
[14] = Table 4 patient 6, Sanfilippo A fibroblasts, 50 μM
[15] = Table 4 patient 6, Sanfilippo A fibroblasts, 100 μM
[16] = Table 4 patient 7, Sanfilippo A fibroblasts, 50 μM
[17] = Table 4 patient 7, Sanfilippo A fibroblasts, 100 μM
[18] = Table 4 patient 8, Tay-Sachs fibroblasts, 50 μM
[19] = Table 4 patient 8, Tay-Sachs fibroblasts, 100 μM
[20] = Table 4 patient 9, Tay-Sachs fibroblasts, 50 μM
[21] = Table 4 patient 9, Tay-Sachs fibroblasts, 100 μM
[22] = Table 4 patient 10, Gaucher fibroblasts, 50 μM
[23] = Table 4 patient 10, Gaucher fibroblasts, 100 μM
[24] = Table 4 patient 11, Niemann-Pick AB fibroblasts, 50 μM
[25] = Table 4 patient 11, Niemann-Pick AB fibroblasts, 100 μM
[26] = Table 4 patient 12, Hurler fibroblasts, 50 μM
[27] = Table 4 patient 12, Hurler fibroblasts, 100 μM
[28] = Table 4 patient 13, Fabry fibroblasts, 50 μM
[29] = Table 4 patient 13, Fabry fibroblasts, 100 μM
[30] = Table 5 patient 1, Sanfilippo B fibroblasts, 50 μM
[31] = Table 5 patient 1, Sanfilippo B fibroblasts, 100 μM
[32] = Table 5 patient 2, Sanfilippo B fibroblasts, 50 μM
[33] = Table 5 patient 2, Sanfilippo B fibroblasts, 100 μM
[34] = Table 5 patient 3, Sanfilippo B fibroblasts, 50 μM
[35] = Table 5 patient 3, Sanfilippo B fibroblasts, 100 μM
[36] = Table 5 patient 4, Sanfilippo A fibroblasts, 50 μM
[37] = Table 5 patient 4, Sanfilippo A fibroblasts, 100 μM
[38] = Table 5 patient 5, Tay-Sachs fibroblasts, 50 μM
[39] = Table 5 patient 5, Tay-Sachs fibroblasts, 100 μM
[40] = Table 5 patient 6, Niemann-Pick AB fibroblasts, 50 μM
[41] = Table 5 patient 6, Niemann-Pick AB fibroblasts, 100 μM
[42] = Table 5 patient 7, Hurler fibroblasts, 50 μM
[43] = Table 5 patient 7, Hurler fibroblasts, 100 μM

Compound: C[C@@](O)(CS(=O)(=O)c1ccc(F)cc1)C(=O)Nc1ccc(C#N)c(C(F)(F)F)c1 [(S)-BICALUTAMIDE (1), (2S)-N-[4-cyano-3-(trifluoromethyl)phenyl]-3-[(4-fluorophenyl)sulfonyl]-2-hydroxy-2-methylpropanamide]
- Increase in exocytosis (%), Median ([1]; 50 μM): 114* %
- Increase in exocytosis (%), Median ([1]; 100 μM): 124* %
- Increase in exocytosis (%) [1, 4]: N.S.
- Increase in exocytosis (%) [1, 5]: N.S.
- Increase in exocytosis (%) [1, 6]: N.S.
- Increase in exocytosis (%) [1, 7]: 166* %
- Increase in exocytosis (%) [1, 8]: N.S.
- Increase in exocytosis (%) [1, 9]: N.S.
- Increase in exocytosis (%) [1, 10]: 33* %
- Increase in exocytosis (%) [1, 11]: 28* %
- Increase in exocytosis (%) [1, 12]: 72* %
- Increase in exocytosis (%) [1, 13]: 39* %
- Increase in exocytosis (%) [1, 14]: 70* %
- Increase in exocytosis (%) [1, 15]: 64* %
- Increase in exocytosis (%) [1, 16]: 121* %
- Increase in exocytosis (%) [1, 17]: 109* %
- Increase in exocytosis (%) [1, 18]: N.S.
- Increase in exocytosis (%) [1, 19]: 127* %
- Increase in exocytosis (%) [1, 20]: N.S.
- Increase in exocytosis (%) [1, 21]: 124* %
- Increase in exocytosis (%) [1, 22]: N.S.
- Increase in exocytosis (%) [1, 23]: N.S.
- Increase in exocytosis (%) [1, 24]: 114* %
- Increase in exocytosis (%) [1, 25]: 60* %
- Increase in exocytosis (%) [1, 26]: 13629* %
- Increase in exocytosis (%) [1, 27]: 5949* %
- Increase in exocytosis (%) [1, 28]: 5402* %
- Increase in exocytosis (%) [1, 29]: 3432* %
- cell cultures with significantly increased lysosomal exocytosis [1]: ten of the thirteen
- Decrease of GAGs (%), Median ([2]; 50 μM): 18* %
- Decrease of GAGs (%), Median ([2]; 100 μM): 38* %
- Decrease of GAGs (%) [2, 30]: N.S.
- Decrease of GAGs (%) [2, 31]: 22* %
- Decrease of GAGs (%) [2, 32]: 18* %
- Decrease of GAGs (%) [2, 33]: 39* %
- Decrease of GAGs (%) [2, 34]: 15* %
- Decrease of GAGs (%) [2, 35]: 20* %
- Decrease of GAGs (%) [2, 36]: 27.4* %
- Decrease of GAGs (%) [2, 37]: 56* %
- Decrease of GAGs (%) [2, 38]: 31* %
- Decrease of GAGs (%) [2, 39]: 60* %
- Decrease of GAGs (%) [2, 40]: 24* %
- Decrease of GAGs (%) [2, 41]: 38* %
- Decrease of GAGs (%) [2, 42]: 0%
- Decrease of GAGs (%) [2, 43]: 0%
- decrease of glycosaminoglycans (in words) [2]: significant and dose-dependent decrease of glycoaminoglicans
- anti-androgenic activity [3]: inactive

Compound: C[C@@](O)(CS(=O)(=O)c1ccc(F)cc1)C(=O)Nc1ccc(C#N)c(C(F)(F)F)c1 (single isomer, unassigned) [(R)-BICALUTAMIDE (2)]
- Increase in exocytosis (%), Median ([1]; 50 μM): 0%
- Increase in exocytosis (%), Median ([1]; 100 μM): 0%
- Increase in exocytosis (%) [1, 4]: 0%
- Increase in exocytosis (%) [1, 5]: 257* %
- Increase in exocytosis (%) [1, 6]: N.S.
- Increase in exocytosis (%) [1, 7]: N.S.
- Increase in exocytosis (%) [1, 8]: N.S.
- Increase in exocytosis (%) [1, 9]: N.S.
- Increase in exocytosis (%) [1, 10]: N.S.
- Increase in exocytosis (%) [1, 11]: 0%
- Increase in exocytosis (%) [1, 12]: 0%
- Increase in exocytosis (%) [1, 13]: 0%
- Increase in exocytosis (%) [1, 14]: N.S.
- Increase in exocytosis (%) [1, 15]: N.S.
- Increase in exocytosis (%) [1, 16]: N.S.
- Increase in exocytosis (%) [1, 17]: 0%
- Increase in exocytosis (%) [1, 18]: N.S.
- Increase in exocytosis (%) [1, 19]: 0%
- Increase in exocytosis (%) [1, 20]: N.S.
- Increase in exocytosis (%) [1, 21]: 0%
- Increase in exocytosis (%) [1, 22]: N.S.
- Increase in exocytosis (%) [1, 23]: 0%
- Increase in exocytosis (%) [1, 24]: N.S.
- Increase in exocytosis (%) [1, 25]: 0%
- Increase in exocytosis (%) [1, 26]: N.S.
- Increase in exocytosis (%) [1, 27]: N.S.
- Increase in exocytosis (%) [1, 28]: N.S.
- Increase in exocytosis (%) [1, 29]: 0%
- cell cultures with significantly increased lysosomal exocytosis [1]: one of the tested cell cultures
- Decrease of GAGs (%), Median ([2]; 50 μM): 0%
- Decrease of GAGs (%), Median ([2]; 100 μM): 25* %
- Decrease of GAGs (%) [2, 30]: N.S.
- Decrease of GAGs (%) [2, 31]: 25* %
- Decrease of GAGs (%) [2, 32]: N.S.
- Decrease of GAGs (%) [2, 33]: N.S.
- Decrease of GAGs (%) [2, 34]: 0%
- Decrease of GAGs (%) [2, 35]: 33* %
- Decrease of GAGs (%) [2, 36]: 0%
- Decrease of GAGs (%) [2, 37]: 0%
- Decrease of GAGs (%) [2, 38]: N.S.
- Decrease of GAGs (%) [2, 39]: 45* %
- Decrease of GAGs (%) [2, 40]: N.S.
- Decrease of GAGs (%) [2, 41]: 41* %
- Decrease of GAGs (%) [2, 42]: 0%
- Decrease of GAGs (%) [2, 43]: 16* %
- decrease of glycosaminoglycans (in words) [2]: a decrease of GAGs levels in some cases, but with a lower intensity and not universally
- anti-androgenic activity [3]: exclusively found in the (R)-enantiomer
